# Patent publication US12533343B2, “Method for preparing (−)-cibenzoline succinate” (CELLTRION, INC., priority 2018, dated 2026)
# Experiments:
# Assay type in all cases: physicochemical
# [1] = Accelerated stability test; conditions: for Assay by potentiometry (on dried basis) / Chiral purity by HPLC S-Isomer Content / Identification by IR / Loss on drying at 105° C. for 3 hours / Related substance by HPLC Single maximum unknown impurity / Related substance by HPLC Total impurity: 40±2° C., RH 75±5%
# Text: (§1) <Packing details>—Primary packing: (−)-Cibenzoline succinic acid salt obtained by Example 4 shall be packed in transparent LDPE bag, twist and tie with Strip seal. • Secondary packing: The above bag shall be kept in Black color LDPE bag, twist and tie with Strip seal. • Tertiary packing: The above bag shall be kept Triple laminated aluminum bag with heat seal. Keep this bag in HDPE drum and close with lid.
# [2] = Long-term storage stability test; conditions: for Assay by potentiometry (on dried basis) / Chiral purity by HPLC S-Isomer Content / Identification by IR / Loss on drying at 105° C. for 3 hours / Related substance by HPLC Single maximum unknown impurity / Related substance by HPLC Total impurity: 25±2° C., RH 60±5%
# Method: And related substances was measured by HPLC under below conditions.
# as §1
# Particle size analysis = assay: Particle size analysis
# Text: The powder sample was dispersed with a dispersion pressure of 2 bar.
# The accompanying Table 9 (ref. 2019 USP 42 NF 37 Volume 4 physical tests <811> powder fineness) indicates particle size distribution associated with corresponding values.
# Hygroscopicity = conditions: 25±1° C., 24 hours, 80±2% RH
# Text: The hygroscopicity was to describe the water vapor uptake behavior of solid by mass changes.
# The results of the hygroscopicity study shall be interpreted based on the criteria in Table 11 (ref. EUROPEAN PHARMACOPOEIA 9.0 volume 1 5.11. characters section in monographs).
# [3] = powder dispersed at 2 bar, listed as (−)-Cibenzoline succinic acid salt
structure (smiles),measurement,setting,value
"O=C(O)CCC(=O)O.c1ccc(C2(c3ccccc3)C[C@@H]2C2=NCCN2)cc1 [Example 4, (−)-Cibenzoline succinic acid salt]",Assay by potentiometry (on dried basis),[1]; 1-month,100.1 % w/w
same,Chiral purity by HPLC S-Isomer Content,[1]; 1-month,100.0 % Area normalization
same,Identification by IR,[1]; 1-month,Complies
same,Loss on drying at 105° C. for 3 hours,[1]; 1-month,0.15 % w/w
same,Related substance by HPLC Single maximum unknown impurity,[1]; 1-month,0.01 % w/w
same,Related substance by HPLC Total impurity,[1]; 1-month,0.01 % w/w
same,Assay by potentiometry (on dried basis),[1]; 2-month,100.3 % w/w
same,Chiral purity by HPLC S-Isomer Content,[1]; 2-month,100.0 % Area normalization
same,Identification by IR,[1]; 2-month,Complies
same,Loss on drying at 105° C. for 3 hours,[1]; 2-month,0.12 % w/w
same,Assay by potentiometry (on dried basis),[1]; 3-month,100.1 % w/w
same,Chiral purity by HPLC S-Isomer Content,[1]; 3-month,100.0 % Area normalization
same,Identification by IR,[1]; 3-month,Complies
same,Loss on drying at 105° C. for 3 hours,[1]; 3-month,0.09 % w/w
same,Assay by potentiometry (on dried basis),[1]; 6-month,99.6 % w/w
same,Chiral purity by HPLC S-Isomer Content,[1]; 6-month,100.0 % Area normalization
same,Identification by IR,[1]; 6-month,Complies
same,Loss on drying at 105° C. for 3 hours,[1]; 6-month,0.10 % w/w
same,Assay by potentiometry (on dried basis),[1]; Initial,100.1 % w/w
same,Chiral purity by HPLC S-Isomer Content,[1]; Initial,100.0 % Area normalization
same,Identification by IR,[1]; Initial,Complies
same,Loss on drying at 105° C. for 3 hours,[1]; Initial,0.11 % w/w
same,Related substance by HPLC Single maximum unknown impurity,[1]; Initial,0.01 % w/w
same,Related substance by HPLC Total impurity,[1]; Initial,0.01 % w/w
same,stability conclusion,[1]; accelerated conditions,excellent stability
same,change of (S)-form to (R)-form,[1]; accelerated stability test section,not changed to (R)-form
same,white crystalline powder form over storage,"[1]; six months, accelerated conditions",uniformly maintained
same,Assay by potentiometry (on dried basis),[2]; 1-month,99.9 % w/w
same,Chiral purity by HPLC S-Isomer Content,[2]; 1-month,100.0 % Area normalization
same,Identification by IR,[2]; 1-month,Complies
same,Loss on drying at 105° C. for 3 hours,[2]; 1-month,0.04 % w/w
same,Related substance by HPLC Single maximum unknown impurity,[2]; 1-month,0.01 % w/w
same,Related substance by HPLC Total impurity,[2]; 1-month,0.01 % w/w
same,Assay by potentiometry (on dried basis),[2]; 2-month,100.1 % w/w
same,Chiral purity by HPLC S-Isomer Content,[2]; 2-month,100.0 % Area normalization
same,Identification by IR,[2]; 2-month,Complies
same,Loss on drying at 105° C. for 3 hours,[2]; 2-month,0.07 % w/w
same,Related substance by HPLC Single maximum unknown impurity,[2]; 2-month,0.01 % w/w
same,Related substance by HPLC Total impurity,[2]; 2-month,0.01 % w/w
same,Assay by potentiometry (on dried basis),[2]; 3-month,100.2 % w/w
same,Chiral purity by HPLC S-Isomer Content,[2]; 3-month,100.0 % Area normalization
same,Identification by IR,[2]; 3-month,Complies
same,Loss on drying at 105° C. for 3 hours,[2]; 3-month,0.14 % w/w
same,Assay by potentiometry (on dried basis),[2]; 6-month,100.2 % w/w
same,Chiral purity by HPLC S-Isomer Content,[2]; 6-month,100.0 % Area normalization
same,Identification by IR,[2]; 6-month,Complies
same,Loss on drying at 105° C. for 3 hours,[2]; 6-month,0.18 % w/w
same,Assay by potentiometry (on dried basis),[2]; Initial,100.1 % w/w
same,Chiral purity by HPLC S-Isomer Content,[2]; Initial,100.0 % Area normalization
same,Identification by IR,[2]; Initial,Complies
same,Loss on drying at 105° C. for 3 hours,[2]; Initial,0.11 % w/w
same,Related substance by HPLC Single maximum unknown impurity,[2]; Initial,0.01 % w/w
same,Related substance by HPLC Total impurity,[2]; Initial,0.01 % w/w
same,change of (S)-form to (R)-form,[2]; long-term storage conditions,not changed to (R)-form
same,stability conclusion,[2]; long-term storage conditions,excellent stability
same,white crystalline powder form over storage,"[2]; six months, long-term storage conditions",uniformly maintained
same,Classification (particle size),Particle size analysis; USP <811> powder fineness,Very fine
same,d10,Particle size analysis; powder dispersed at 2 bar,15.2 μm
same,d50,Particle size analysis; powder dispersed at 2 bar,104 μm
same,d90,Particle size analysis; powder dispersed at 2 bar,265 μm
same,d50,Particle size analysis; [3],104.0 μm
same,d90,Particle size analysis; [3],265.0 μm
same,Mass change,Hygroscopicity,0.01%
same,Hygroscopicity evaluation,Hygroscopicity; Ph. Eur. criteria,Non hygroscopic
